Test results: ChEMBL document CHEMBL4308841, “Synthesis, in vitro antiproliferative activity, and kinase inhibitory effects of pyrazole-containing diarylureas and diarylamides” (Eur J Med Chem, 2018)
pIC50: −log10 of the molar value.

Assays:
[1] = test system: SK-MEL-28; assay: Growth inhibition of human SK-MEL-28 cells assessed as cell growth at 0.1 uM incubated for 48 hrs by sulforhodamine B assay relative to control; assay type: functional; details: SK-MEL-28, 48 h, read-out: Activity
[2] = test system: SW-620; assay: Growth inhibition of human SW620 cells assessed as cell growth at 1 uM incubated for 48 hrs by sulforhodamine B assay relative to control; assay type: functional; details: SW-620, 48 h, read-out: Activity
[3] = test system: 786-0; assay: Growth inhibition of human 786-0 cells assessed as cell growth at 100 uM incubated for 48 hrs by sulforhodamine B assay relative to control; assay type: functional; details: 786-0, 48 h, read-out: Activity
[4] = test system: MOLT-4; assay: Growth inhibition of human MOLT4 cells assessed as cell growth at 0.1 uM incubated for 48 hrs by sulforhodamine B assay relative to control; assay type: functional; details: MOLT-4, 48 h, read-out: Activity
[5] = test system: U-251; assay: Growth inhibition of human U251 cells assessed as cell growth at 1 uM incubated for 48 hrs by sulforhodamine B assay relative to control; assay type: functional; details: U-251, 48 h, read-out: Activity
[6] = test system: A498; assay: Growth inhibition of human A498 cells incubated for 48 hrs by sulforhodamine B assay; assay type: functional, cell-based; details: A498, 48 h
[7] = test system: SNB-75; assay: Growth inhibition of human SNB75 cells assessed as cell growth at 100 uM incubated for 48 hrs by sulforhodamine B assay relative to control; assay type: functional; details: SNB-75, 48 h, read-out: Activity
[8] = test system: RPMI-8226; assay: Growth inhibition of human RPMI8226 cells assessed as cell growth at 1 uM incubated for 48 hrs by sulforhodamine B assay relative to control; assay type: functional; details: RPMI-8226, 48 h, read-out: Activity
[9] = test system: KM12; assay: Growth inhibition of human KM12 cells assessed as cell growth at 0.1 uM incubated for 48 hrs by sulforhodamine B assay relative to control; assay type: functional; details: KM12, 48 h, read-out: Activity
[10] = test system: SNB-75; assay: Growth inhibition of human SNB75 cells assessed as cell growth at 0.1 uM incubated for 48 hrs by sulforhodamine B assay relative to control; assay type: functional; details: SNB-75, 48 h, read-out: Activity
[11] = test system: DU-145; assay: Growth inhibition of human DU145 cells assessed as cell growth at 1 uM incubated for 48 hrs by sulforhodamine B assay relative to control; assay type: functional; details: DU-145, 48 h, read-out: Activity
[12] = test system: TK-10; assay: Growth inhibition of human TK10 cells assessed as cell growth at 10 uM incubated for 48 hrs by sulforhodamine B assay relative to control; assay type: functional; details: TK-10, 48 h, read-out: Activity
[13] = test system: HT-29; assay: Growth inhibition of human HT-29 cells assessed as cell growth at 100 uM incubated for 48 hrs by sulforhodamine B assay relative to control; assay type: functional; details: HT-29, 48 h, read-out: Activity
[14] = test system: KM12; assay: Growth inhibition of human KM12 cells assessed as cell growth at 1 uM incubated for 48 hrs by sulforhodamine B assay relative to control; assay type: functional; details: KM12, 48 h, read-out: Activity
[15] = test system: OVCAR-3; assay: Growth inhibition of human OVCAR3 cells incubated for 48 hrs by sulforhodamine B assay; assay type: functional, cell-based; details: OVCAR-3, 48 h
[16] = test system: MCF7; assay: Growth inhibition of human MCF7 cells assessed as cell growth at 0.01 uM incubated for 48 hrs by sulforhodamine B assay relative to control; assay type: functional; details: MCF7, 48 h, read-out: Activity
[17] = test system: ACHN; assay: Growth inhibition of human ACHN cells assessed as cell growth at 0.01 uM incubated for 48 hrs by sulforhodamine B assay relative to control; assay type: functional; details: read-out: Activity
[18] = test system: OVCAR-4; assay: Growth inhibition of human OVCAR4 cells assessed as cell growth at 0.1 uM incubated for 48 hrs by sulforhodamine B assay relative to control; assay type: functional; details: OVCAR-4, 48 h, read-out: Activity
[19] = test system: SF-268; assay: Growth inhibition of human SF268 cells assessed as cell growth at 1 uM incubated for 48 hrs by sulforhodamine B assay relative to control; assay type: functional; details: SF-268, 48 h, read-out: Activity
[20] = test system: KM12; assay: Growth inhibition of human KM12 cells assessed as cell growth at 100 uM incubated for 48 hrs by sulforhodamine B assay relative to control; assay type: functional; details: KM12, 48 h, read-out: Activity
[21] = test system: HCT-116; assay: Growth inhibition of human HCT116 cells assessed as cell growth at 0.1 uM incubated for 48 hrs by sulforhodamine B assay relative to control; assay type: functional; details: HCT-116, 48 h, read-out: Activity
[22] = test system: DU-145; assay: Growth inhibition of human DU145 cells incubated for 48 hrs by sulforhodamine B assay; assay type: functional, cell-based; details: DU-145, 48 h
[23] = test system: HL-60(TB); assay: Growth inhibition of human HL-60(TB) cells assessed as cell growth at 100 uM incubated for 48 hrs by sulforhodamine B assay relative to control; assay type: functional; details: HL-60, 48 h, read-out: Activity
[24] = test system: A549; assay: Growth inhibition of human A549/ATCC cells assessed as cell growth at 0.01 uM incubated for 48 hrs by sulforhodamine B assay relative to control; assay type: functional; details: A549, 48 h, read-out: Activity
[25] = test system: HOP-62; assay: Growth inhibition of human HOP62 cells assessed as cell growth at 0.1 uM incubated for 48 hrs by sulforhodamine B assay relative to control; assay type: functional; details: HOP-62, 48 h, read-out: Activity
[26] = test system: SK-MEL-5; assay: Growth inhibition of human SK-MEL-5 cells assessed as cell growth at 100 uM incubated for 48 hrs by sulforhodamine B assay relative to control; assay type: functional; details: SK-MEL-5, 48 h, read-out: Activity
[27] = test system: SF-539; assay: Growth inhibition of human SF539 cells assessed as cell growth at 0.1 uM incubated for 48 hrs by sulforhodamine B assay relative to control; assay type: functional; details: SF-539, 48 h, read-out: Activity
[28] = test system: RXF 393; assay: Growth inhibition of human RXF393 cells assessed as cell growth at 0.1 uM incubated for 48 hrs by sulforhodamine B assay relative to control; assay type: functional; details: RXF 393, 48 h, read-out: Activity
[29] = test system: SK-MEL-28; assay: Growth inhibition of human SK-MEL-28 cells assessed as cell growth at 1 uM incubated for 48 hrs by sulforhodamine B assay relative to control; assay type: functional; details: SK-MEL-28, 48 h, read-out: Activity
[30] = test system: KM12; assay: Growth inhibition of human KM12 cells incubated for 48 hrs by sulforhodamine B assay; assay type: functional, cell-based; details: KM12, 48 h
[31] = test system: NCI/ADR-RES; assay: Growth inhibition of human NCI/ADR-RES cells assessed as cell growth at 100 uM incubated for 48 hrs by sulforhodamine B assay relative to control; assay type: functional; details: read-out: Activity
[32] = read-out: LC50 (the source's name)
[33] = read-out: pLC50 (the source's name) (converted)

Q: Which results are given for `O=C(Nc1cccc(-n2cc(-c3ccncc3)c(-c3cc(O)cc(Cl)c3)n2)c1)Nc1ccc(Cl)c(C(F)(F)F)c1`?
A: growth at 0.1 µM [1]: 100%; growth at 1 µM [2]: 101%; growth at 100 µM [3]: -50%; growth at 0.1 µM [4]: 92%; growth at 1 µM [5]: 56%; GI50 ([6]; read-out: GI50): 3.9 µM; CC50 [6, 32]: 44 µM; TGI ([6]; read-out: TGI): 15.5 µM; GI50 ([6]; read-out: pGI50 (converted)): 3.89 µM; CC50 [6, 33]: 44.7 µM; TGI ([6]; read-out: pTGI (converted)): 15.5 µM; growth at 100 µM [7]: -41%; growth at 1 µM [8]: 88%; growth at 0.1 µM [9]: 92%; growth at 0.1 µM [10]: 88%; growth at 1 µM [11]: 96%; growth at 10 µM [12]: 25.9%; growth at 100 µM [13]: -88%; growth at 1 µM [14]: 56%; pIC50 [15]: 5.63; GI50 ([15]; read-out: GI50): 2.34 µM; CC50 [15, 32]: > 100 µM; TGI ([15]; read-out: TGI): 50 µM; GI50 ([15]; read-out: pGI50 (converted)): 2.34 µM; CC50 [15, 33]: > 100 µM; TGI ([15]; read-out: pTGI (converted)): 6.61 µM; growth at 0.01 µM [16]: 90%; growth at 0.01 µM [17]: 104%; growth at 0.1 µM [18]: 105%; growth at 1 µM [19]: 92%; growth at 100 µM [20]: -74%; growth at 0.1 µM [21]: 103%; GI50 ([22]; read-out: GI50): 3.77 µM; CC50 [22, 32]: 55.8 µM; TGI ([22]; read-out: TGI): 11.7 µM; GI50 ([22]; read-out: pGI50 (converted)): 3.31 µM; CC50 [22, 33]: 56.2 µM; TGI ([22]; read-out: pTGI (converted)): 11.7 µM; growth at 100 µM [23]: -15%; growth at 0.01 µM [24]: 101%; growth at 0.1 µM [25]: 97%; growth at 100 µM [26]: -97%; growth at 0.1 µM [27]: 95%; growth at 0.1 µM [28]: 95%; growth at 1 µM [29]: 81%; GI50 ([30]; read-out: GI50): 2.5 µM; CC50 [30, 32]: 47.2 µM; TGI ([30]; read-out: TGI): 90.6 µM; GI50 ([30]; read-out: pGI50 (converted)): 2.57 µM; CC50 [30, 33]: 46.8 µM; TGI ([30]; read-out: pTGI (converted)): 9.77 µM; growth at 100 µM [31]: -15%

Q: What does the source list for `COc1cc(Cl)cc(-c2nn(-c3cccc(NC(=O)Nc4cc(C(F)(F)F)cc(C(F)(F)F)c4)c3)cc2-c2ccncc2)c1`?
A: growth at 0.1 µM [1]: 102%; growth at 1 µM [2]: 19%; growth at 100 µM [3]: -70%; growth at 0.1 µM [4]: 87%; growth at 1 µM [5]: 11%; pIC50 [6]: 6.41; GI50 ([6]; read-out: GI50): 0.35 µM; CC50 [6, 32]: 0.0334 µM; TGI ([6]; read-out: TGI): 3.59 µM; GI50 ([6]; read-out: pGI50 (converted)): 0.389 µM; CC50 [6, 33]: 33.1 µM; TGI ([6]; read-out: pTGI (converted)): 3.63 µM; growth at 100 µM [7]: -58%; growth at 1 µM [8]: -12%; growth at 0.1 µM [9]: 98%; growth at 0.1 µM [10]: 74%; growth at 1 µM [11]: 27%; growth at 10 µM [12]: 30.3%; growth at 100 µM [13]: -96%; growth at 1 µM [14]: 31%; pIC50 [15]: 6.48; GI50 ([15]; read-out: GI50): 0.334 µM; TGI ([15]; read-out: TGI): 1.41 µM; GI50 ([15]; read-out: pGI50 (converted)): 0.331 µM; CC50 [15, 33]: 34.7 µM; TGI ([15]; read-out: pTGI (converted)): 1.41 µM; growth at 0.01 µM [16]: 58%; growth at 0.01 µM [17]: 103%; growth at 0.1 µM [18]: 97%; growth at 1 µM [19]: 37%; growth at 100 µM [20]: -83%; growth at 0.1 µM [21]: 97%; pIC50 [22]: 6.33; GI50 ([22]; read-out: GI50): 0.459 µM; TGI ([22]; read-out: TGI): 10.6 µM; GI50 ([22]; read-out: pGI50 (converted)): 0.468 µM; CC50 [22, 33]: 38.9 µM; TGI ([22]; read-out: pTGI (converted)): 10.7 µM; growth at 100 µM [23]: -8%; growth at 0.01 µM [24]: 100%; growth at 0.1 µM [25]: 93%; growth at 100 µM [26]: -70%; growth at 0.1 µM [27]: 102%; growth at 0.1 µM [28]: 101%; growth at 1 µM [29]: 46%; pIC50 [30]: 6.29; GI50 ([30]; read-out: GI50): 0.606 µM; CC50 [30, 32]: 0.0279 µM; TGI ([30]; read-out: TGI): 2.75 µM; GI50 ([30]; read-out: pGI50 (converted)): 0.501 µM; CC50 [30, 33]: 28.2 µM; TGI ([30]; read-out: pTGI (converted)): 2.75 µM; growth at 100 µM [31]: -12%
